Data set [1] can be described thus: Phase I study D-84812-Z012, single s.c. injection: pharmacokinetics of teverelix. It is filed as in vivo, human. The following applies: between the 60 mg and 90 mg doses.
For data set [2] the following is noted: compared with degarelix; cited from earlier work.
Data set [3] in a line: Phase I study D-84812-Z012, single s.c. injection: safety and tolerability. Format: in vivo, human. As to conditions: doses of up to 90 mg, 32 healthy male volunteers.
A short description of data set [4]: Phase I study EP-24332T-A004, repeated s.c. injections: safety and tolerability. It is filed as in vivo, human. The following applies: 2 s.c. doses of 60 mg or 90 mg at 24 h or 48 h interval. The method, then:
In a second Phase I study (EP-24332T-A004), a second injection was administered 24 h or 48 h after the first in order to increase and prolong the initial peak, as well as increase the teverelix level and consequently the number of subjects castrated. As the previous Phase I study had shown 10 mg and 30 mg to be insufficient to provide a long-term suppression, 2 doses of 60 mg or 90 mg (6 subjects per group) or placebo (4 subjects) were administered at a 24 h interval and 2 doses of 90 mg at a 48 h interval. […] No critical safety findings were reported. […] The protocol of the study included 6 subjects who received 90 mg Teverelix TFA on D1; D2; D3.

Structures can show the parent of a compound that is named as a salt. Non-standard residues stand in square brackets, D forms with d. Residues, ends and D or L forms follow the SMILES beside them. Phe(4-Cl) = N[C@@H](Cc1ccc(Cl)cc1)C(=O)O; dPhe(4-Cl) = N[C@H](Cc1ccc(Cl)cc1)C(=O)O; d2Nal = N[C@H](Cc1ccc2ccccc2c1)C(=O)O; d(hCit) = NC(=O)NCCCC[C@@H](N)C(=O)O; Lys(iPr) = CC(C)NCCCC[C@H](N)C(=O)O; d3Pal = N[C@H](Cc1cccnc1)C(=O)O

On to `CC(=O)N[C@H](Cc1ccc2ccccc2c1)C(=O)N[C@H](Cc1ccc(Cl)cc1)C(=O)N[C@H](Cc1cccnc1)C(=O)N[C@@H](CO)C(=O)N[C@@H](Cc1ccc(O)cc1)C(=O)N[C@H](CCCCNC(N)=O)C(=O)N[C@@H](CC(C)C)C(=O)N[C@@H](CCCCNC(C)C)C(=O)N1CCC[C@H]1C(=O)N[C@H](C)C(N)=O` [Teverelix TFA, teverelix trifluoroacetate] (Ac-[d2Nal][dPhe(4-Cl)][d3Pal]SY[d(hCit)]L[Lys(iPr)]P[dA]-NH2), for which, in data set [1], the dose proportionality entry was “demonstrated”. The “local irritation at the administration site” value in data set [2] is listed as “less local irritation at the administration site than degarelix”. Further, in data set [3], the tolerability entry is reported as “tolerated well”.

For the molecule `CC(=O)N[C@H](Cc1ccc2ccccc2c1)C(=O)N[C@@H](Cc1ccc(Cl)cc1)C(=O)N[C@H](Cc1cccnc1)C(=O)N[C@@H](CO)C(=O)N[C@H](Cc1ccc(O)cc1)C(=O)N[C@H](CCCCNC(N)=O)C(=O)N[C@@H](CC(C)C)C(=O)N[C@@H](CCCCNC(C)C)C(=O)N1CCC[C@H]1C(=O)N[C@H](C)C(N)=O` [teverelix, Ac-D-Nal-D-pClPhe-D-Pal-Ser-Tyr-D-Hci-Leu-Lys(iPr)-Pro-D-Ala-NH2] (Ac-[d2Nal][Phe(4-Cl)][d3Pal]S[dY][d(hCit)]L[Lys(iPr)]P[dA]-NH2), in data set [4], the “local reactions at the injection sites” value is on record as “only mild local indurations” and the tolerability result is “tolerated well”.

Source of the values: patent US20200000872A1, “A COMPOSITION COMPRISING AT LEAST ONE GNRH ANTAGONIST” (ANTEV LIMITED, priority 2017, published 2020).
